According to the supplement of paper PMC10307832:

Legend:
Assay in all cases: relative viability (nuclei count vs DMSO), 5 days (fraction); higher = more cells survive
[1] = compound: C1=CC=C(C(=C1)C2=CC=C(C=C2)C3=CSC4=C3C(=C(C(=O)N4)C#N)O)O + C[C@@H](Oc1cc(-c2cnn(C3CCNCC3)c2)cnc1N)c1c(Cl)ccc(F)c1Cl [Crizotinib] (partner 1 µM)
Summary of the method: (§1)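 Dosing by pin tool came one day after lung cancer cell lines were seeded in 1536-well plates, using either one drug or a fixed anchor-drug dose plus five library-drug doses (not always all listed) in √10 steps. After 5 days, nuclei were counted on 4× images. Relative viability is treated-well nuclei count divided by vehicle-well nuclei count, and values are medians of duplicate plates.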

[2] = compound: CC1=CN2C(=O)C=C(N=C2C(=C1)C(C)NC3=CC=CC=C3)N4CCOCC4 [TGX 221] + CC(C)C[C@H](NC(=O)[C@H](Cc1ccccc1)NC(=O)c1cnccn1)B(O)O [Bortezomib] (partner 0.002 µM)
Summary of the method: as §1

[3] = compound: CC1=CN2C(=O)C=C(N=C2C(=C1)C(C)NC3=CC=CC=C3)N4CCOCC4 [TGX 221] + Cc1nc(NC(=O)N2CCC[C@H]2C(N)=O)sc1-c1ccnc(C(C)(C)C(F)(F)F)c1 [Alpelisib] (partner 2 µM)
Summary of the method: as §1

[4] = compound: O=C(CCCCCCNC(=O)c1cnc(N(c2ccccc2)c2ccccc2)nc1)NO [Ricolinostat] + Nc1ncn([C@H]2C[C@H](O)[C@@H](CO)O2)c(=O)n1 [Decitabine] (partner 2 µM)
Summary of the method: as §1

## NCI-H1792
[1]; first compound 0.253 µM
  relative viability: 0.915
[1]; first compound 0.8 µM
  relative viability: 1.15
[1]; first compound 2.53 µM
  relative viability: 1.13
[1]; first compound 8 µM
  relative viability: 0.43
[2]; first compound 0.08 µM
  relative viability: 0.89
[2]; first compound 0.253 µM
  relative viability: 0.922
[2]; first compound 0.8 µM
  relative viability: 0.944
[2]; first compound 2.53 µM
  relative viability: 0.904
[2]; first compound 8 µM
  relative viability: 0.838
[3]; first compound 0.08 µM
  relative viability: 0.609
[3]; first compound 0.253 µM
  relative viability: 0.599
[3]; first compound 0.8 µM
  relative viability: 0.698
[3]; first compound 2.53 µM
  relative viability: 0.511
[3]; first compound 8 µM
  relative viability: 0.432
[4]; first compound 0.253 µM
  relative viability: 0.484
[4]; first compound 0.8 µM
  relative viability: 0.492
[4]; first compound 2.53 µM
  relative viability: 0.366
